Results on 6 molecules are retold here after US8501783B2, “Conformationally restricted urea inhibitors of soluble epoxide hydrolase” (The Regents of the University of California, priority 2006, dated 2013).

Each structure is given as a SMILES string. “And” between values parts separate entries of the source, which are not always exact repeats. Equal values may be shown once. Read-outs that look alike come from different tables or passages of the source.

In one data set the target is human sEH (Homo sapiens (Human), UniProt P34913). In words: Inhibition of human soluble epoxide hydrolase (IC50; one of three substrate methods).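 Further: enzyme expressed in baculovirus and affinity-purified, assays run in triplicate, with substrate and read-out differing among the three methods.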 It counts as biochemical.
Chain of human sEH (P34913 whole entry): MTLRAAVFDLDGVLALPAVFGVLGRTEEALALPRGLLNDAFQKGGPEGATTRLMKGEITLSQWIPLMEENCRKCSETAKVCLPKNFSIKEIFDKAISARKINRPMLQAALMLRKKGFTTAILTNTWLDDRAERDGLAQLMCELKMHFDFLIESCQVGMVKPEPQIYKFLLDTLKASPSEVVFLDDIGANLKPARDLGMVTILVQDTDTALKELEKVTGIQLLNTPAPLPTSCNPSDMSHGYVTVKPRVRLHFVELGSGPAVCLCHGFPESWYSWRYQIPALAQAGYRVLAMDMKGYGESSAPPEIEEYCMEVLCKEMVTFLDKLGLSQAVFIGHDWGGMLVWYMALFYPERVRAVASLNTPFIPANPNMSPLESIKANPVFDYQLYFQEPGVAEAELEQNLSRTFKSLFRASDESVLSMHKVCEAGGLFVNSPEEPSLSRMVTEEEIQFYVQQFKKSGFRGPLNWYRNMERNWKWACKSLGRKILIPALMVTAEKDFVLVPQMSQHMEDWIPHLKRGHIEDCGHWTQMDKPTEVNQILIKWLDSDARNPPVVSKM
Data set [1] is described as follows: Solubility in oil of the dosing preparation (compound in Crisco). It counts as physicochemical. Particulars: appearance in oil, in parentheses after compound number. The source says:
The dogs are fed immediately thereafter.

Data set [2] in a line: Pharmacokinetic screening in dogs, oral administration, plasma LC-MS/MS. Particulars: for AUC: dog, plasma, po, 0.3 mg/kg; for AUCINF_D_pred / LC/MS analysis, plasma level at time 0 / LC/MS analysis, plasma level at time 15 / LC/MS analysis, plasma level at time 30 / LC/MS analysis, plasma level at time 60 / LC/MS analysis, plasma level at time 120 / LC/MS analysis, plasma level at time 180 / LC/MS analysis, plasma level at time 240 / LC/MS analysis, plasma level at time 300 / LC/MS analysis, plasma level at time 360 / LC/MS analysis, plasma level at time 480 / LC/MS analysis, plasma level at time 1440: dogs; for AUCINF_D_pred: oral, dose-normalised; for LC/MS analysis, plasma level at time 0 / LC/MS analysis, plasma level at time 15 / LC/MS analysis, plasma level at time 30 / LC/MS analysis, plasma level at time 60 / LC/MS analysis, plasma level at time 120 / LC/MS analysis, plasma level at time 180 / LC/MS analysis, plasma level at time 240 / LC/MS analysis, plasma level at time 300 / LC/MS analysis, plasma level at time 360 / LC/MS analysis, plasma level at time 480 / LC/MS analysis, plasma level at time 1440: single oral dose (0.3 mg/kg per FIG. 1); for LC/MS analysis, plasma level at time 0: time 0 min; for LC/MS analysis, plasma level at time 15: time 15 min; for LC/MS analysis, plasma level at time 30: time 30 min; for LC/MS analysis, plasma level at time 60: time 60 min; for LC/MS analysis, plasma level at time 120: time 120 min; for LC/MS analysis, plasma level at time 180: time 180 min; for LC/MS analysis, plasma level at time 240: time 240 min; for LC/MS analysis, plasma level at time 300: time 300 min; for LC/MS analysis, plasma level at time 360: time 360 min; for LC/MS analysis, plasma level at time 480: time 480 min; for LC/MS analysis, plasma level at time 1440: time 1440 min.

The IC50 is the concentration at which inhibition is half-maximal. For orientation: AUC means concentration integrated over time.

Take `CCCC(=O)N1CCC(NC(=O)NC23CC4CC(CC(C4)C2)C3)CC1` [Compound 1157, N-(1-butyrylpiperidin-4-yl)-N′-(adamant-1-yl)urea]: the IC50 against human sEH is 2.6 nM and 2.64 nM. The solubility in oil in data set [1] is reported as 1157 (Opaque). Moreover, in data set [2], the AUC was 0.0367 µM·h; the “AUCINF_D_pred” value was determined as 7187 kg·nM·min/mg; the “LC/MS analysis, plasma level at time 0” value is 0.00; the “LC/MS analysis, plasma level at time 15” value is 0.58. Besides, in data set [2], the “LC/MS analysis, plasma level at time 30” value amounted to 5.18; the “LC/MS analysis, plasma level at time 60” value is on record as 7.77; the “LC/MS analysis, plasma level at time 120” value is 9.50; the “LC/MS analysis, plasma level at time 180” value is 7.05. In addition, in data set [2], the “LC/MS analysis, plasma level at time 240” value is reported as 4.60; the “LC/MS analysis, plasma level at time 300” value is on record as 2.45; the “LC/MS analysis, plasma level at time 360” value was 2.45; the “LC/MS analysis, plasma level at time 480” value was 0.86. In data set [2], the “LC/MS analysis, plasma level at time 1440” value stood at 0.00.

On to `O=C(NC1CCN(C(=O)c2ccccc2)CC1)NC12CC3CC(CC(C3)C1)C2` [Compound 1159, N-(1-benzoylpiperidin-4-yl)-N′-(adamant-1-yl)urea], for which the IC50 at human sEH (recombinant human sEH) was found to be 1.3 nM. Further, the solubility in oil in data set [1] is 1159 (Opaque). In addition, in data set [2], the “LC/MS analysis, plasma level at time 0” value is recorded as 0.00; the “LC/MS analysis, plasma level at time 15” value is 7.26; the “LC/MS analysis, plasma level at time 30” value was 7.82; the “LC/MS analysis, plasma level at time 60” value came to 4.58. In data set [2], the “LC/MS analysis, plasma level at time 120” value is recorded as 1.39; the “LC/MS analysis, plasma level at time 180” value was found to be 0.60; the “LC/MS analysis, plasma level at time 240” value came out at 0.00; the “LC/MS analysis, plasma level at time 300” value worked out at 0.00. Also, in data set [2], the “LC/MS analysis, plasma level at time 360” value turned out to be 0.00; the “LC/MS analysis, plasma level at time 480” value came out at 0.00; the “LC/MS analysis, plasma level at time 1440” value was determined as 0.00.

Regarding `CCC(=O)N1CCC(NC(=O)NC23CC4CC(CC(C4)C2)C3)CC1` [Compound 1163, N-(1-propionylpiperidin-4-yl)-N′-(adamant-1-yl)urea], on human sEH, the IC50 stood at 3.19 nM. Moreover, the solubility in oil in data set [1] is 1163 (Opaque). For the same molecule, in data set [2], the AUC was 0.0933 µM·h; the “AUCINF_D_pred” value was 18504 kg·nM·min/mg; the “LC/MS analysis, plasma level at time 0” value was determined as 0.00; the “LC/MS analysis, plasma level at time 15” value came to 5.70. In data set [2], the “LC/MS analysis, plasma level at time 30” value turned out to be 16.05; the “LC/MS analysis, plasma level at time 60” value is reported as 31.79; the “LC/MS analysis, plasma level at time 120” value is recorded as 24.00; the “LC/MS analysis, plasma level at time 180” value is given as 14.55. For the same molecule, in data set [2], the “LC/MS analysis, plasma level at time 240” value turned out to be 10.05; the “LC/MS analysis, plasma level at time 300” value worked out at 7.20; the “LC/MS analysis, plasma level at time 360” value turned out to be 4.95; the “LC/MS analysis, plasma level at time 480” value is recorded as 1.50. In data set [2], the “LC/MS analysis, plasma level at time 1440” value is on record as 0.00.

As to `O=C(NC1CCN(C(=O)c2ccccn2)CC1)NC12CC3CC(CC(C3)C1)C2` [Compound 1201, N-(1-(Pyridine-2-carbonyl)piperidin-4-yl)-N′-(adamant-1-yl)urea], the IC50 at human sEH (recombinant human sEH) was 1.2 nM. In addition, the solubility in oil in data set [1] is given as 1201 (Suspension). Further, in data set [2], the AUC is 0.08 µM·h; the “AUCINF_D_pred” value was 16100 kg·nM·min/mg; the “LC/MS analysis, plasma level at time 0” value is on record as 0.00; the “LC/MS analysis, plasma level at time 15” value worked out at 9.19. In data set [2], the “LC/MS analysis, plasma level at time 30” value came out at 32.65; the “LC/MS analysis, plasma level at time 60” value was 42.48; the “LC/MS analysis, plasma level at time 120” value worked out at 21.09; the “LC/MS analysis, plasma level at time 180” value amounted to 7.15. Besides, in data set [2], the “LC/MS analysis, plasma level at time 240” value was determined as 3.16; the “LC/MS analysis, plasma level at time 300” value was found to be 1.72; the “LC/MS analysis, plasma level at time 360” value is 0.00; the “LC/MS analysis, plasma level at time 480” value is given as 0.00. Moreover, the “LC/MS analysis, plasma level at time 1440” value in data set [2] was determined as 0.00.

For `COC(=O)c1ccc(C(=O)N2CCC(NC(=O)NC34CC5CC(CC(C5)C3)C4)CC2)cc1` [Compound 1204, 4-[4-(3-Adamantan-1-yl-ureido)-piperidine-1-carbonyl]-benzoic acid methyl ester], the IC50 on human sEH (recombinant human sEH) was found to be 1.1 nM. Further, the solubility in oil in data set [1] was 1204 (Opaque). Further, in data set [2], the “LC/MS analysis, plasma level at time 0” value is reported as 0.00; the “LC/MS analysis, plasma level at time 15” value worked out at 0.00; the “LC/MS analysis, plasma level at time 30” value is 0.19; the “LC/MS analysis, plasma level at time 60” value is 0.34. In addition, in data set [2], the “LC/MS analysis, plasma level at time 120” value is 0.11; the “LC/MS analysis, plasma level at time 180” value is given as 0.00; the “LC/MS analysis, plasma level at time 240” value was determined as 0.00; the “LC/MS analysis, plasma level at time 300” value is reported as 0.00. In data set [2], the “LC/MS analysis, plasma level at time 360” value is listed as 0.00; the “LC/MS analysis, plasma level at time 480” value amounted to 0.00; the “LC/MS analysis, plasma level at time 1440” value was found to be 0.00.

With `COC(=O)CCCC(=O)N1CCC(NC(=O)NC23CC4CC(CC(C4)C2)C3)CC1` [Compound 1206, 5-[4-(3-Adamantan-1-yl-ureido)-piperidin-1-yl]-5-oxo-pentanoic acid methyl ester], the IC50 at human sEH (recombinant human sEH) was determined as 2.7 nM. For the same molecule, the solubility in oil in data set [1] is reported as 1206 (Opaque). Further, in data set [2], the “LC/MS analysis, plasma level at time 0” value is 0.00; the “LC/MS analysis, plasma level at time 15” value worked out at 0.00; the “LC/MS analysis, plasma level at time 30” value was determined as 0.00; the “LC/MS analysis, plasma level at time 60” value stood at 0.00. Moreover, in data set [2], the “LC/MS analysis, plasma level at time 120” value is given as 0.00; the “LC/MS analysis, plasma level at time 180” value was found to be 0.00; the “LC/MS analysis, plasma level at time 240” value was determined as 0.00; the “LC/MS analysis, plasma level at time 300” value was 0.00. For the same molecule, in data set [2], the “LC/MS analysis, plasma level at time 360” value stood at 0.00; the “LC/MS analysis, plasma level at time 480” value is recorded as 0.00; the “LC/MS analysis, plasma level at time 1440” value is listed as 0.00.
